Laboratory results from patent publication US11981643B1, “Oxoimidazolidine derivatives as anti-tubercular agents” (priority 2023, dated 2024).
Converted amounts (≈) assume the structure as drawn. Where two headings read alike, the source gives them in different places.

Legend:
[1] = test system: Mycobacterium tuberculosis H37Rv; experiment: Resazurin Microplate Assay (REMA), anti-tubercular activity, H37Rv strain; assay type: cell-based; details: 192 h, read-out: Anti-tubercular activity against Mycobacterium tuberculosis, H37Rv (minimum inhibitory concentration, MIC)
[2] = H37Rv strain, ATCC: 25177, REMA, 8 days incubation at 37° C.

Row | Compound | melting point | MIC [1, 2] | MIC ([1]; H37RV)
1 | CN1/C(=C\c2ccc([N+](=O)[O-])cc2)C(=O)N/C1=N\C(=O)Nc1ccccc1F | 150 to 152 °C |  | 
2 | Cc1ccc(/C=C2/C(=O)N/C(=N\C(=O)Nc3ccccc3F)N2C)o1 | 196 to 198 °C |  | 
3 | CN1/C(=C\c2ccc([N+](=O)[O-])cc2)C(=O)N/C1=N\C(=O)Nc1cccc(F)c1 | 144 to 146 °C |  | 
4 | Cc1ccc(/C=C2/C(=O)N/C(=N\C(=O)Nc3cccc(F)c3)N2C)o1 | 188 to 190 °C |  | 
5 | CN1/C(=C\c2ccc([N+](=O)[O-])cc2)C(=O)N/C1=N\C(=O)Nc1ccc(F)cc1 | 156 to 158 °C |  | 
6 | Cc1ccc(/C=C2/C(=O)N/C(=N\C(=O)Nc3ccc(F)cc3)N2C)o1 | 186 to 188 °C |  | 
7 | CN1/C(=C\c2ccc(Br)o2)C(=O)N/C1=N\C(=O)Nc1ccc(Cl)cc1Cl | 198 to 200 °C |  | 
8 | CN1/C(=C\c2ccc(-c3ccccc3[N+](=O)[O-])o2)C(=O)N/C1=N\C(=O)Nc1ccc(Cl)cc1Cl | 206 to 208 °C |  | 
9 | Cc1ccc(/C=C2/C(=O)N/C(=N\C(=S)Nc3cccc(Cl)c3)N2C)o1 | 158 to 160 °C |  | 
10 | CN1/C(=C\c2ccc(Br)o2)C(=O)N/C1=N\C(=S)Nc1cccc(Cl)c1 | 140 to 142 °C |  | 
11 | Cc1ccc(/C=C2/C(=O)N/C(=N\C(=S)Nc3ccc(F)cc3)N2C)o1 | 146 to 148 °C |  | 
12 | CN1C(=Cc2ccc([N+](=O)[O-])cc2)C(=O)N/C1=N\C(=S)Nc1cccc(Cl)c1 (stereo in doubt) [Compound 4q, 1-(3-Chlorophenyl)-3-[(2E,5Z)-1-methyl-5-(4-nitrobenzylidene)-4-oxoimidazolidin-2-ylidene]thiourea] | 166 to 168 °C | 8 µg/mL (≈ 19.2 µM) | 
13 | CN1C(=Cc2ccc(-c3ccccc3[N+](=O)[O-])o2)C(=O)N/C1=N\C(=S)Nc1ccc(F)cc1 (stereo in doubt) [Compound 4v, 1-(4-Fluorophenyl)-3-[(2E,5Z)-1-methyl-5-{[5-(2-nitrophenyl)furan-2-yl]methylidene}-4-oxoimidazolidin-2-ylidene]thiourea] | 158 to 160 °C | 16 µg/mL (≈ 34.4 µM) | 
14 | CN1/C(=C\c2ccc(Br)o2)C(=O)N/C1=N\C(=O)Nc1cccc(F)c1 [Compound 4g, 1-{(2E,5Z)-5-[(5-Bromofuran-2-yl)methylidene]-1-methyl-4-oxoimidazolidin-2-ylidene}-3-(3-fluorophenyl)urea] | 196 to 198 °C |  | 8 µg/mL (≈ 19.6 µM)
